US20250129086A1, “COMPOUND FOR DEGRADING EGFR PROTEIN AND USE THEREOF” (TYK MEDICINES, INC., priority 2021, published 2025)

Legend:
[1] = system: HCC827 (exon 19 deletion mutation); experiment: Cell antiproliferative assay (CTG, 72 h), HCC827; assay type: cell-based, human; settings: Homo sapiens, HCC827, 72 h
Summary of the method: (§1)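 Viability by CTG luminescence after 72 h compound exposure, normalised between blank medium and 0.1% DMSO controls, with IC50 from fitted curves. Dosing in triplicate, top 10,000 nM, 4-fold dilutions, applied about 24 h after plating 1500-2500 cells per well.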

EGFR = biological target: T1, EGFR (Homo sapiens, UniProt P00533, DEL746-750); experiment: EGFR PROTAC In Cell Western assay in HCC827; assay type: cell-based; settings: HCC827, EGFR degradation, 16 hours of incubation
T1 construct: host or cells: HCC827
Excerpt: Test Example 2 EGFR PROTAC in Cell Western Assay
HCC827 cell culture medium was purchased from Corning. Cell line HCC827 was purchased from BeNa Culture Collection; EGF Receptor (D38B1) XP Rabbit mAb antibody and β-Actin (8H10D10) Mouse mAb antibody were from CST. IRDye 800CW, IRDye 680RD, and Intercept blocking solution (PBS) were purchased from Licor. Triton-100 was purchased from sigma, and 96-well black cell culture imaging microtiter plates were purchased from Agilent.
1) HCC827 cells were cell counted and cells were inoculated into 96-well black cell culture imaging microtiter plates at a density of 40,000 cells per well, with 100 μl per well. The plate was incubated overnight in a CO2 incubator.
2) Day 1: A gradient dilution of the compound to be tested was added to the cells of the culture plate (with a starting concentration of […], 9 concentrations, a dilution ratio of 1:3, 2 duplicate wells), with a final concentration of DMSO being 0.5%, and a blank control of DMSO without compound. The plate was placed in the cell culture incubator for a final 16 hours of incubation.
3) The culture medium was removed from the 96 wells with a pipette and the residual medium was washed with […] of PBS per well on a shaker for 5 min. After the removal of PBS, cells were quickly fixed by adding 150 μl of fresh fixation buffer (3.7% paraformaldehyde) and incubated for 20 min at room temperature.
4) The fixation buffer was removed and […] of Triton elution buffer (0.3% Triton-100) was added to wash for four times on a shaker for 5 minutes each time.
5)[…] LI-COR Odyssey blocking solution was added and the cells were incubated for 1.5 hours at room temperature with slow shaking on a shaker.
6) To block the samples, a primary antibody against EGFR and Actin were prepared using Antibody Dilution Buffer at a ratio of 1:300. The blocking solution was poured out and the diluted primary antibody was added (at a total volume of 50 μl/per well). The cell plate was covered and incubated at 4° C. overnight.
7) The cell plate was washed four times with PBS+Triton X-100 for 5 minutes each time.
8) Fluorescently labeled secondary antibodies IRDye® 680RD and IRDye® 800CW were diluted with Antibody Dilution Buffer (with a ratio of 1:600, at a total volume of 50 μl/well) and then incubated for one hour at room temperature, protected from light.
9) The cell plate was washed four times with PBS+Triton X-100 for 5 minutes each time.
After pipetting the PBS thoroughly, the plate was inverted and imaged on a Burroughs imager. A multiple exposure program was selected, IRDye 680RD Blot was chosen for the first channel, and IRDye 800CW Blot was chosen for the second channel. […] The blank group was the DMSO group, EGFR/Actin was calculated as the EGFR value of the corresponding sample wells, and the degradation rate=100-100*EGFR signal/DMSO signal. The DC50 and Dmax of the degraded EGFR proteins were calculated by fitting curves using the Prism software, 3-parameter method.

[2] = system: H1975 (EGFR L858R/T790M double mutation); experiment: Cell antiproliferative assay (CTG, 72 h), H1975; assay type: cell-based, human; settings: Homo sapiens, NCI-H1975, 72 h
Summary of the method: as §1

[3] = system: PC-9 (EGFR exon 19 deletion); experiment: Cell antiproliferative assay (CTG, 72 h), PC-9; assay type: cell-based, human; settings: Homo sapiens, PC-9, 72 h
Summary of the method: as §1

T1 sequence (P00533 with tags, fused parts or gaps DEL746-750): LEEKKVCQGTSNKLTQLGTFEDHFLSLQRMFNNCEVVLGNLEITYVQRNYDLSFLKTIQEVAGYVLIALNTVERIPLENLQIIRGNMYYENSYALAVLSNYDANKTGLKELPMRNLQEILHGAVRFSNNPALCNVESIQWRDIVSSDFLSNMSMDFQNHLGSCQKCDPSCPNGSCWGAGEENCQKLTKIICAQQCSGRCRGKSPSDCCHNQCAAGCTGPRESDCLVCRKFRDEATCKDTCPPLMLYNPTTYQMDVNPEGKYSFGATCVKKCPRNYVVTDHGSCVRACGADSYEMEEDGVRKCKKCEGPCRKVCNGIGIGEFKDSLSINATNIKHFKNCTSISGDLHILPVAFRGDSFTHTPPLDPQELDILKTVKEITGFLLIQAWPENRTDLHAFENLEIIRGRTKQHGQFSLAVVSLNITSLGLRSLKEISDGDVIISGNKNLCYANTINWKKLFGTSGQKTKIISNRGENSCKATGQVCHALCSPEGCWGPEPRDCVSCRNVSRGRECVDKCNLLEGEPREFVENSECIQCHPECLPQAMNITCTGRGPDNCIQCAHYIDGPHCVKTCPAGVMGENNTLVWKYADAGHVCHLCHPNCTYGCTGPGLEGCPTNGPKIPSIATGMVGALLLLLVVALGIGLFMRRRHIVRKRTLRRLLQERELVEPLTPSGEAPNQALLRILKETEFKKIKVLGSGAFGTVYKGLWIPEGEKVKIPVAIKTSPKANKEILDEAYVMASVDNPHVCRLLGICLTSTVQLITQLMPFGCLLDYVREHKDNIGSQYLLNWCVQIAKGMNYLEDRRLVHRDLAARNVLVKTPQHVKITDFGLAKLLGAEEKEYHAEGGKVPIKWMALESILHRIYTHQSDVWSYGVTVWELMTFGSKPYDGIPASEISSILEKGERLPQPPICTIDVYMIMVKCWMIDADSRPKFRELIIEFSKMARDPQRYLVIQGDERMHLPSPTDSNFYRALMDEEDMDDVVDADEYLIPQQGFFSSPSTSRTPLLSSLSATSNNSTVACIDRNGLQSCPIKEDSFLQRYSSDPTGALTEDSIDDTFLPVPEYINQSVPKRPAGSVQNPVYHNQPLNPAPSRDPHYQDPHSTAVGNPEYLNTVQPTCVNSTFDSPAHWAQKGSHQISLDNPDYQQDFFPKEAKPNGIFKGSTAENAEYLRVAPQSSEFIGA

SMILES | IC50 ([1]; Table 2, HCC827 cells) [nM] | Dmax (EGFR; HCC827, Table 4) [%] | DC50 (EGFR; Table 4) [nM] | IC50 ([2]; Table 2, H1975 cells) [nM] | IC50 ([3]; Table 2, PC-9 cells) [nM] | IC50 ([1]; Table 3, HCC827 cells) [nM] | Dmax (EGFR; HCC827, Table 5) [%] | DC50 (EGFR; Table 5) [nM] | IC50 ([2]; Table 3, H1975 cells) [nM] | IC50 ([3]; Table 3, PC-9 cells) [nM]
COc1cc(N2CCN(C(=O)CN3CCC(c4ccc(NC5CCC(=O)NC5=O)cc4)CC3)C(C)C2)ccc1Nc1ncc(Cl)c(Nc2ccccc2C(C)=O)n1 (stereo not shown) [Compound T-63] | 100 to 1000 | 50 to 70 | 100 to 1000 | 10 to 100 | 100 to 1000 | – | – | – | – | –
COc1cc(N2CCN(C(=O)CN3CCC(c4ccc(NC5CCC(=O)NC5=O)cc4)CC3)CC2)ccc1Nc1ncc(Cl)c(Nc2ccccc2N(C)S(C)(=O)=O)n1 (stereo not shown) [Compound T-227] | 10 to 100 | 50 to 70 | 10 to 100 | ≤ 10 | 10 to 100 | – | – | – | – | –
O=C1CCC(Nc2ccc(C3CCN(CC(=O)N4CCN(c5ccc(-c6cc(F)c7c(c6)C(=O)N(C(C(=O)Nc6nccs6)c6ncn8c6CCC8)C7)cc5)CC4)CC3)cc2)C(=O)N1 (stereo not shown) [Comparative Compound 1, reference compound] | ≥ 1000 | < 50 | ≥ 1000 | 100 to 1000 | ≥ 1000 | > 5000 | – | – | 548 | > 5000
CNC(=O)c1ccccc1Nc1nc(Nc2ccc(N3CCN(C(=O)CN4CCC(c5ccc(NC6CCC(=O)NC6=O)cc5)CC4)CC3)cc2OC)ncc1Cl (stereo not shown) [Compound T-184] | 10 to 100 | 70 to 100 | 10 to 100 | ≤ 10 | 100 to 1000 | 14.2 | 70.8 | 10.2 | 7.72 | 122
COc1cc(N2CCN(C(=O)CN3CCC(c4ccc(NC5CCC(=O)NC5=O)cc4)CC3)CC2)ccc1Nc1ncc(C(F)(F)F)c(Nc2ccc(F)cc2F)n1 (stereo not shown) [Compound T-131] | – | < 50 | 10 to 100 | – | – | – | – | – | – | –
COc1cc(N2CCC(N3CCN(C(=O)C4CCN(CC5CCN(c6ccc7c(c6)C(=O)N(C6CCC(=O)NC6=O)C7=O)CC5)CC4)CC3)CC2)ccc1Nc1ncc(Cl)c(Nc2ccccc2P(C)(C)=O)n1 (stereo not shown) [Comparative Compound 2, reference compound] | 100 to 1000 | 50 to 70 | 10 to 100 | 100 to 1000 | ≥ 1000 | 221 | 64.7 | 22.3 | 186 | 1940

Further lines, results first:

IC50 ([1]; Table 2, HCC827 cells) [nM] | Dmax (EGFR; HCC827, Table 4) [%] | DC50 (EGFR; Table 4) [nM] | IC50 ([2]; Table 2, H1975 cells) [nM] | IC50 ([3]; Table 2, PC-9 cells) [nM] | IC50 ([1]; Table 3, HCC827 cells) [nM] | Dmax (EGFR; HCC827, Table 5) [%] | DC50 (EGFR; Table 5) [nM] | IC50 ([2]; Table 3, H1975 cells) [nM] | IC50 ([3]; Table 3, PC-9 cells) [nM] | SMILES
100 to 1000 | < 50 | 10 to 100 | 100 to 1000 | 100 to 1000 | – | – | – | – | – | CC(=O)c1ccccc1Nc1nc(Nc2ccc(N3CCN(C(=O)CN4CCC(c5ccc(NC6CCC(=O)NC6=O)cc5)CC4)CC3)cc2Cl)ncc1Cl (stereo not shown) [Compound T-333]
100 to 1000 | 50 to 70 | ≤ 10 | ≤ 10 | 100 to 1000 | – | – | – | – | – | COc1cc(N2CCN(C(=O)CN3CCC(c4ccc(NC5CCC(=O)NC5=O)cc4)CC3)CC2)ccc1Nc1ncc(Cl)c(Nc2ccccc2C(=O)N(C)C)n1 (stereo not shown) [Compound T-198]
100 to 1000 | 70 to 100 | 10 to 100 | 10 to 100 | 100 to 1000 | 110 | 70.5 | 15.6 | 34.3 | 324 | COc1cc(N2CCN(C(=O)CN3CCC(c4ccc(NC5CCC(=O)NC5=O)cc4)CC3)CC2)ccc1Nc1ncc(Cl)c(Nc2ccccc2C(C)=O)n1 (stereo not shown) [Compound T-12]
100 to 1000 | 50 to 70 | 10 to 100 | 10 to 100 | 100 to 1000 | – | – | – | – | – | COc1cc(N2CCN(C(=O)CN3CCC(c4ccc(NC5CCC(=O)NC5=O)cc4)CC3)CC2)c(C)cc1Nc1ncc(Cl)c(Nc2ccccc2C(C)=O)n1 (stereo not shown) [Compound T-57]
10 to 100 | 70 to 100 | ≤ 10 | ≤ 10 | 100 to 1000 | – | – | – | – | – | CNC(=O)c1ccccc1Nc1nc(Nc2ccc(N3CCN(C(=O)CN4CCC(c5ccc(NC6CCC(=O)NC6=O)cc5)CC4)CC3)cc2OC)ncc1Br (stereo not shown) [Compound T-185]
